Consider seven molecules from patent US10954287B2, “Ras binding peptides and methods of use” (Ra Pharmaceuticals, Inc., priority 2016, dated 2021).

*1 amine or outer side, *2 acyl side, *3 side chain or, on linkers, in order; H or OH if unused. Bridges are numbered along the chain shown (N, C = ends). [ ]: non-standard residue; d: D form. ξ: configuration not given here. DAPTZAC2 = (S)-3-(4-(2-acrylamidoethyl)-1H-1,2,3-triazol-1-yl)-2-aminopropanoic acid, C=CC(=O)NCCc1cn(C[C@H](N[*:1])C(=O)[*:2])nn1; Trp(7-aza) = N[C@@H](Cc1c[nH]c2ncccc12)C(=O)O; NMePhe(4-F) = CN[C@@H](Cc1ccc(F)cc1)C(=O)O; Alexa Fluor 594 = N-terminal label (ALF); mXylylene = c1cc(C[*:1])cc(C[*:2])c1; Phg = N[C@H](C(=O)O)c1ccccc1; Tle = CC(C)(C)[C@H](N)C(=O)O; ξPhg = NC(C(=O)O)c1ccccc1; NMeA = CN[C@@H](C)C(=O)O; Nva = CCC[C@H](N)C(=O)O; Sar = CNCC(=O)O

In the experiment the test system is GMPPNP-loaded H-Ras or GTP-loaded K-Ras. The experiment is described as follows: Fluorescence polarization competition assay with TAMRA-labeled probe R4007. The following applies: 120 nM Ras, 30 nM probe R4007, 60 minutes at room temperature; read-out: Probe displacement (nM IC50). The class given is binding, human. How it is done:
R4000 was evaluated for competition with a TAMRA labeled probe (R4007) based on peptide R4000. The assay was performed in 384-well black, non-binding plates (Greiner Bio-One, Monroe, N.C.). GMPPNP-loaded H-Ras or GTP-loaded K-Ras, diluted in FP assay buffer (20 mM Tris-HCl, pH 7.5, 50 mM NaCl, 5 mM MgCl2, 1 mM EDTA, 0.002% Triton-X-100) for a final concentration of 120 nM was incubated with 30 nM R4007 for 20 minutes at room temperature. R4000 was serially diluted, added to the assay and incubated for 60 minutes at room temperature. Fluorescence polarization was detected with a SpectraMax Paradigm plate reader (Molecular Devices, Sunnyvale, Calif.) using the Rhodamine FP detection cartridge (535 nm/595 nm). Data was analyzed using GraphPad Prism and Ki determined using One Site Ki Curve fitting model.
Peptides were evaluated for competition with R4007, a probe consisting of TAMRA-labeled R4000, using a fluorescence polarization (FP) competition assay. The assay was performed in 384-well black, non-binding plates (Greiner Bio-One, Monroe, N.C.). GMPPNP-loaded H-Ras or GTP- loaded K-Ras, diluted in FP assay buffer (20 mM Tris-HCl, pH 7.5, 50 mM NaCl, 5 mM MgCl2, 1 mM EDTA, 0.002% Triton-X-100) for a final concentration of 120 nM was incubated with 30 nM probe for 20 minutes at room temperature. Peptides were serially diluted, added to the assay and incubated for 60 minutes at room temperature. Fluorescence was detected with a SpectraMax Paradigm plate reader (Molecular Devices, Sunnyvale, Calif.) using the Rhodamine FP detection cartridge (535 nm/595 nm). Data was analyzed and Ki determined using a One Site Ki Curve fitting model. Percent inhibition for each data point was calculated relative to the maximal binding in test compound-free control wells (showing no probe displacement) and Ras-free control wells (showing no probe binding) and the half-maximal inhibitory concentration (IC50), based on probe displacement, was determined.
As to `CCC[C@H](NC(C)=O)C(=O)N[C@H]1CSCc2cccc(c2)CSC[C@@H](C(=O)N[C@H](CO)C(=O)N[C@H](C)C(=O)N[C@@H](CCCCN)C(=O)N[C@@H](CSSC(C)(C)C)C(=O)N[C@H](C(=O)N[C@H](C(=O)N[C@@H](CCSC)C(=O)O)[C@@H](C)CC)C(C)C)NC(=O)CN(C)C(=O)[C@H](Cc2ccc(F)cc2)N(C)C(=O)[C@H](Cc2ccc(O)cc2)NC(=O)[C@H](Cc2c[nH]c3ncccc23)NC(=O)[C@H](c2ccccc2)NC(=O)[C@H](C)N(C)C(=O)[C@H](Cc2c[nH]cn2)NC(=O)[C@H](CCCCN)NC(=O)[C@H](C(C)(C)C)NC(=O)[C@H](Cc2ccc(O)cc2)N(C)C1=O` (relative stereo) [Compound R4129, ACE-NVA-CYS*-NMY-TBG-LYS-HIS-NMA-PHG-7AW-TYR-MFF-SAR-CYS*-DSER-DALA-LYS-TDSPA-VAL-ILE-MET], the IC50 came out at 227 nM. As for `CCC[C@H](NC(C)=O)C(=O)N[C@H]1CSCc2cccc(c2)CSC[C@@H](C(N)=O)NC(=O)CN(C)C(=O)[C@H](Cc2ccc(F)cc2)N(C)C(=O)[C@H](Cc2ccc(O)cc2)NC(=O)[C@H](Cc2c[nH]c3ncccc23)NC(=O)[C@H](c2ccccc2)NC(=O)[C@H](CCCCN)N(C)C(=O)[C@H](Cc2c[nH]cn2)NC(=O)[C@H](C)NC(=O)[C@H](C(C)(C)C)NC(=O)[C@H](Cc2ccc(O)cc2)NC1=O` (relative stereo) [Compound R4125, ACE-NVA-CYS*-TYR-TBG-ALA-HIS-NMK-PHG-7AW-TYR-MFF-SAR-CYS*-NH2], the IC50 amounted to 110 nM.

On to “ALF-NVA-CYS*-TYR-NVA-PHG-MFF-THR-PRO-7AW-CYS*-7AW-GLU-GLU-NH2 ({Alexa Fluor 594}-[Nva]CY[Nva][Phg][NMePhe(4-F)]TP[Trp(7-aza)]C[Trp(7-aza)]EE-NH2; linker 2-10 via mXylylene) [Compound R4154, cyclized by a m-xylylene thioether bridge]”, for which the half-inhibitory concentration (IC50) came out at 37400 nM. The result for “ACE-NVA-SER-TYR-TBG-ALA-DAPTZAC2-NMA-RPHG-7AW-TYR-MFF-SAR-SER-NH2 (Ac-[Nva]SY[Tle]A[DAPTZAC2][NMeA][ξPhg][Trp(7-aza)]Y[NMePhe(4-F)][Sar]S-NH2) [Compound R4151, linear]” reads 12200 nM; that for `C=CC(=O)NCc1cn(C[C@H](NC(=O)[C@H](C)NC(=O)[C@@H](NC(=O)[C@H](Cc2ccc(O)cc2)NC(=O)[C@H](CO)NC(=O)[C@H](CCC)NC(C)=O)C(C)(C)C)C(=O)N(C)[C@@H](C)C(=O)NC(C(=O)N[C@@H](Cc2c[nH]c3ncccc23)C(=O)N[C@@H](Cc2ccc(O)cc2)C(=O)N(C)[C@@H](Cc2ccc(F)cc2)C(=O)N(C)CC(=O)N[C@@H](CO)C(N)=O)c2ccccc2)nn1` (stereo partly shown) [Compound R4005, ACE-NVA-SER-TYR-TBG-ALA-DAPTZAC1-NMA-RPHG-7AW-TYR-MFF-SAR-SER-NH2], 2070 nM; that for `CCC[C@H](NC(C)=O)C(=O)N[C@H]1CSCc2cccc(c2)CSC[C@@H](C(N)=O)NC(=O)CN(C)C(=O)[C@H](Cc2ccc(F)cc2)N(C)C(=O)[C@H](Cc2ccc(O)cc2)NC(=O)[C@H](Cc2c[nH]c3ncccc23)NC(=O)[C@H](c2ccccc2)NC(=O)[C@H](C)N(C)C(=O)[C@H](Cc2c[nH]cn2)NC(=O)[C@H](CCCCN)NC(=O)[C@H](C(C)(C)C)NC(=O)[C@H](Cc2ccc(O)cc2)N(C)C1=O` (relative stereo) [Compound R4117, ACE-NVA-CYS*-NMY-TBG-LYS-HIS-NMA-PHG-7AW-TYR-MFF-SAR-CYS*-NH2], 48.3 nM. The result for `CCC[C@H](NC(C)=O)C(=O)N[C@H]1CSCc2cccc(c2)CSC[C@@H](C(N)=O)NC(=O)CN(C)C(=O)[C@H](Cc2ccc(F)cc2)N(C)C(=O)[C@H](Cc2ccc(O)cc2)NC(=O)[C@H](Cc2c[nH]c3ncccc23)NC(=O)[C@@H](c2ccccc2)NC(=O)[C@H](C)N(C)C(=O)[C@H](C)NC(=O)[C@H](CCCCN)NC(=O)[C@H](C(C)(C)C)NC(=O)[C@H](Cc2ccc(O)cc2)NC1=O` (relative stereo) [Compound R4153, ACE-NVA-CYS*-TYR-TBG-LYS-ALA-NMA-DPHG-7AW-TYR-MFF-SAR-CYS*-NH2] reads 36400 nM.
